In US20100125059A1, “1-BIARYLAZETIDINONE DERIVATIVE” (Teijin Pharma Limited, priority 2007, published 2010):
Read-outs that look alike come from different tables or passages of the source.

System: hamsters fed a high cholesterol diet
Assay: Measurement of lipid lowering effect in hamsters fed a high cholesterol diet
Type: in vivo, Male Golden Syrian hamsters
Settings: Mesocricetus auratus, po, 168 h, gavage once daily, 7 days
Protocol: Male Golden Syrian hamsters are divided into groups each consisting of 6 animals and fed a controlled high cholesterol diet (CE-2 containing 0.5% cholesterol; CLEA Japan, Inc.) for 28 days at most. From the start of feeding of the high cholesterol diet, the test compounds are administered by gavage once daily. For the administration, 0.2 mL of corn oil alone per 100 g (control group) or a solution (or suspension) of the test compound in corn oil at a dose of 0.01 to 10 mg/kg was given. At the same time, a group fed with a normal diet during the same study period is handled as a normal group. 4 hours after the last administration, whole blood is collected from the abdominal aorta under light anesthesia with ether and serum is separated from the blood. Further, livers are harvested, wet liver weights are measured, and part (about 0.5 g) of the harvested livers are extracted and weighed. 2-propanol in an amount 4 times the weight of the extracted livers are added, the resulted mixtures are homogenized, and the centrifuged supernatant are recovered and used as liver-derived samples.
Serum and liver TC concentrations are determined by an enzyme method using L-type Wako CHO•H (Wako Pure Chemical Industries Ltd.) or Cholestest CHO (Daiichi Pure Chemicals Co., Ltd.). Serum TG concentrations are determined by an enzyme method using L-type Wako TG•H (Wako Pure Chemical Industries Ltd.) or Autosera S TG-N (Daiichi Pure Chemicals Co., Ltd.) and a free glycerine elimination method. LDL-C concentrations are determined by a direct method using L-type Wako LDL-C•M (Wako Pure Chemical Industries Ltd.) or Cholestest LDL (Daiichi Pure Chemicals Co., Ltd.). Human serum was commonly used as a sample for the calibration curve for determinations of serum and liver TC concentrations, serum TG concentration, and serum LDL-C concentration. The effect of the test compound is shown by a suppression rate (%) of an increase in serum TC concentration due to feeding of the high cholesterol diet, a serum TG lowering rate (%), a suppression rate (%) of an increase in serum LDL-C concentration due to feeding of the high cholesterol diet, and a suppression rate (%) of an increase in liver TC concentration due to feeding of the high cholesterol diet calculated in accordance with the following equations.
In the Equation 2, A is the control group, B is the test compound group, and C is the normal group.
In the Equation 3, A is the control group, B is the test compound group, and C is the normal group.
In the Equation 4, A is the control group, B is the test compound group, and C is the normal group.
In the Equation 5, A is the control group, and B is the test compound group.
The following results were obtained from the study by this method on the effects of lowering serum TC, LDL-C, and TG, and liver TC in the hamsters fed with a high cholesterol diet which were given the test compounds for 7 days.
The compounds in which pyridyl of compound of example 51 and 55 was exchanged for phenyl, were used as comparative compound 1 and 2, respectively. In the same method as Example 112, the suppression rate (%) of an increase in serum TC concentration of comparative compound 1 and 2 were calculated.

[1] = read-out: serum LDL-C lowering effect (suppression rate of an increase in serum LDL-C concentration)
[2] = read-out: serum TC lowering effect (suppression rate of an increase in serum TC concentration)
[3] = read-out: liver TC lowering effect (suppression rate of an increase in liver TC concentration)
[4] = read-out: serum TG lowering effect (serum TG lowering rate)

O=Cc1cncc(-c2ccc(N3C(=O)[C@H](SC[C@H](O)c4ccc(F)cc4)[C@H]3c3ccc(O)cc3)cc2)c1 [Example 71, 5-(4-{(3R,4R)-3-[(2R)-2-(4-fluorophenyl)-2-hydroxyethylthio]-4-(4-hydroxyphenyl)-2-oxoazetidinyl}phenyl)pyridine-3-carbaldehyde]
inhibition in vivo at 0.1 mg/kg [1]: ≥ 50% | inhibition in vivo at 0.1 mg/kg [2]: ≥ 50%

O=C1[C@H](SC[C@H](O)c2ccc(Cl)c(F)c2)[C@@H](c2ccc(O)cc2)N1c1ccc(-c2cncc(F)c2)cc1 [Example 82, (3R,4R)-3-[(2R)-2-(4-chloro-3-fluorophenyl)-2-hydroxyethylthio]-1-[4-(5-fluoropyridin-3-yl)phenyl]-4-(4-hydroxyphenyl)azetidin-2-one]
inhibition in vivo at 0.1 mg/kg [1]: ≥ 50% | inhibition in vivo at 0.1 mg/kg [2]: ≥ 50%

Cc1cc(O)ccc1[C@@H]1[C@@H](SC[C@H](O)c2ccc(F)cc2)C(=O)N1c1ccc(-c2cncc(F)c2)cc1 [Example 74, (3R,4R)-3-[(2R)-2-(4-fluorophenyl)-2-hydroxyethylthio]-1-[4-(5-fluoropyridin-3-yl)phenyl]-4-(4-hydroxy-2-methylphenyl)azetidin-2-one]
inhibition in vivo at 0.01 mg/kg [3]: ≥ 30% | inhibition in vivo at 0.01 mg/kg [2]: ≥ 30% | inhibition in vivo at 0.1 mg/kg [3]: ≥ 50% | inhibition in vivo at 0.1 mg/kg [1]: ≥ 50%

O=C1[C@H](SC[C@H](O)c2ccc(F)cc2F)[C@@H](c2ccc(O)cc2)N1c1ccc(-c2cccnc2)cc1 [Example 30, (3R,4R)-3-[(2R)-2-(2,4-difluorophenyl)-2-hydroxyethylthio]-4-(4-hydroxyphenyl)-1-[4-(pyridin-3-yl)phenyl]azetidin-2-one]
inhibition in vivo at 0.1 mg/kg [3]: ≥ 50% | inhibition in vivo at 0.1 mg/kg [1]: ≥ 50% | inhibition in vivo at 0.1 mg/kg [2]: ≥ 50%

COc1cc(Cl)ccc1[C@@H](O)CS[C@H]1C(=O)N(c2ccc(-c3cccnc3)cc2)[C@@H]1c1ccc(O)cc1 [Example 101, (3R,4R)-3-[(2R)-2-(4-chloro-2-methoxyphenyl)-2-hydroxyethylthio]-4-(4-hydroxyphenyl)-1-[4-(pyridin-3-yl)phenyl]azetidin-2-one]
inhibition in vivo at 0.1 mg/kg [1]: ≥ 50% | inhibition in vivo at 0.1 mg/kg [2]: ≥ 50%

O=C1[C@H](SC[C@H](O)c2ccc(F)cc2)[C@@H](c2ccc(O)cc2O)N1c1ccc(-c2cncc(Cl)c2)cc1 [Example 92, (3R,4R)-3-[(2R)-2-(4-fluorophenyl)-2-hydroxyethylthio]-4-(2,4-dihydroxyphenyl)-1-[4-(5-chloropyridin-3-yl)phenyl]azetidin-2-one]
inhibition in vivo at 0.01 mg/kg [1]: ≥ 30% | inhibition in vivo at 0.01 mg/kg [2]: ≥ 30% | inhibition in vivo at 0.1 mg/kg [4]: ≥ 20%

Cc1ccc(-c2ccc(N3C(=O)[C@H](SC[C@H](O)c4ccc(Cl)cc4)[C@H]3c3ccc(O)cc3O)cc2)cn1 [Example 98, (3R,4R)-3-[(2R)-2-(4-chlorophenyl)-2-hydroxyethylthio]-4-(2,4-dihydroxyphenyl)-1-[4-(6-methylpyridin-3-yl)phenyl]azetidin-2-one]
inhibition in vivo at 0.01 mg/kg [1]: ≥ 30%

O=Cc1cc(-c2ccc(N3C(=O)[C@H](SC[C@H](O)c4ccc(F)cc4)[C@H]3c3ccc(O)cc3)cc2)cs1 [Example 67, 4-(4-{(3R,4R)-3-[(2R)-2-(4-fluorophenyl)-2-hydroxyethylthio]-4-(4-hydroxyphenyl)-2-oxoazetidinyl}phenyl)thiophene-2-carbaldehyde]
inhibition in vivo at 0.1 mg/kg [4]: ≥ 20%

O=C1[C@H](SC[C@H](O)c2ccccc2F)[C@@H](c2ccc(O)cc2)N1c1ccc(-c2cccnc2)cc1 [Example 77, (3R,4R)-3-[(2R)-2-(2-fluorophenyl)-2-hydroxyethylthio]-4-(4-hydroxyphenyl)-1-[4-(pyridin-3-yl)phenyl]azetidin-2-one]
inhibition in vivo at 0.1 mg/kg [4]: ≥ 20%

O=C1[C@H](SC[C@H](O)c2ccc(F)cc2)[C@@H](c2ccc(O)cc2O)N1c1ccc(-c2cccnc2)cc1 [Example 2, (3R,4R)-3-[(2R)-2-(4-fluorophenyl)-2-hydroxyethylthio]-4-(2,4-dihydroxyphenyl)-1-[4-(pyridin-3-yl)phenyl]azetidin-2-one]
inhibition in vivo at 0.01 mg/kg [3]: ≥ 30% | inhibition in vivo at 0.01 mg/kg [2]: ≥ 30%

O=C(CS[C@H]1C(=O)N(c2ccc(-c3cccnc3)cc2)[C@@H]1c1ccc(O)cc1)c1ccc(F)cc1 [Example 27, (3R,4R)-3-[2-(4-fluorophenyl)-2-oxoethylthio]-4-(4-hydroxyphenyl)-1-[4-(pyridin-3-yl)phenyl]azetidin-2-one]
inhibition in vivo at 0.1 mg/kg [1]: ≥ 50% | inhibition in vivo at 0.1 mg/kg [2]: ≥ 50%

O=C1[C@H](SC[C@H](O)c2ccc(F)cc2)[C@@H](c2ccc(O)cc2O)N1c1ccc(-c2cncc(F)c2)cc1 [Example 73, (3R,4R)-3-[(2R)-2-(4-fluorophenyl)-2-hydroxyethylthio]-4-(2,4-dihydroxyphenyl)-1-[4-(5-fluoropyridin-3-yl)phenyl]azetidin-2-one]
inhibition in vivo at 0.01 mg/kg [2]: ≥ 30% | inhibition in vivo at 0.1 mg/kg [1]: ≥ 50% | inhibition in vivo at 0.1 mg/kg [2]: ≥ 50%

O=C1[C@H](SC[C@H](O)c2ccc(Cl)cc2)[C@@H](c2ccc(O)cc2)N1c1ccc(-c2cncnc2)cc1 [Example 69, (3R,4R)-3-[(2R)-2-(4-chlorophenyl)-2-hydroxyethylthio]-4-(4-hydroxyphenyl)-1-[4-(pyrimidin-5-yl)phenyl]azetidin-2-one]
inhibition in vivo at 0.01 mg/kg [1]: ≥ 30% | inhibition in vivo at 0.01 mg/kg [2]: ≥ 30%

O=C1[C@H](SC[C@H](O)c2ccc(F)cc2)[C@@H](c2ccc(O)cc2)N1c1ccc(-c2cnccn2)cc1 [Example 53, (3R,4R)-3-[(2R)-2-(4-fluorophenyl)-2-hydroxyethylthio]-4-(4-hydroxyphenyl)-1-[4-(pyrazin-2-yl)phenyl]azetidin-2-one]
inhibition in vivo at 0.1 mg/kg [1]: ≥ 50%

Cc1cc(Cl)ccc1[C@@H](O)CS[C@H]1C(=O)N(c2ccc(-c3cccnc3)cc2)[C@@H]1c1ccc(O)cc1 [Example 102, (3R,4R)-3-[(2R)-2-(4-chloro-2-methylphenyl)-2-hydroxyethylthio]-4-(4-hydroxyphenyl)-1-[4-(pyridin-3-yl)phenyl]azetidin-2-one]
inhibition in vivo at 0.1 mg/kg [3]: ≥ 50% | inhibition in vivo at 0.1 mg/kg [1]: ≥ 50% | inhibition in vivo at 0.1 mg/kg [2]: ≥ 50%

O=C1[C@H](SC[C@H](O)c2ccc(F)cc2)[C@@H](c2ccc(O)c([N+](=O)[O-])c2)N1c1ccc(-c2cccnc2)cc1 [Example 42, (3R,4R)-3-[(2R)-2-(4-fluorophenyl)-2-hydroxyethylthio]-4-(4-hydroxy-3-nitrophenyl)-1-[4-(pyridin-3-yl)phenyl]azetidin-2-one]
inhibition in vivo at 0.1 mg/kg [1]: ≥ 50%

O=C1[C@H](SC[C@H](O)c2ccc(F)cc2)[C@@H](c2ccc(O)cc2)N1c1ccc(-c2cncnc2)cc1 [Example 10, (3R,4R)-3-[(2R)-2-(4-fluorophenyl)-2-hydroxyethylthio]-4-(4-hydroxyphenyl)-1-[4-(pyrimidin-5-yl)phenyl]azetidin-2-one]
inhibition in vivo at 0.1 mg/kg [2]: ≥ 50% | inhibition in vivo at 0.1 mg/kg [4]: ≥ 20%

CCNC(=O)c1cncc(-c2ccc(N3C(=O)[C@H](SC[C@H](O)c4ccc(Cl)cc4)[C@H]3c3ccc(O)cc3)cc2)c1 [Example 106, N-ethyl-5-(4-{(3R,4R)-3-[(2R)-2-(4-chlorophenyl)-2-hydroxyethylthio]-4-(4-hydroxyphenyl)-2-oxoazetidinyl}phenyl)pyridine-3-carboxamide]
inhibition in vivo at 0.1 mg/kg [1]: ≥ 50%

Cc1cc(O)ccc1[C@@H]1[C@@H](SC[C@H](O)c2ccc(F)cc2)C(=O)N1c1ccc(-c2cncnc2)cc1 [Example 100, (3R,4R)-3-[(2R)-2-(4-fluorophenyl)-2-hydroxyethylthio]-4-(4-hydroxy-2-methylphenyl)-1-[4-(pyrimidin-5-yl)phenyl]azetidin-2-one]
inhibition in vivo at 0.1 mg/kg [1]: ≥ 50% | inhibition in vivo at 0.1 mg/kg [2]: ≥ 50% | inhibition in vivo at 0.1 mg/kg [4]: ≥ 20%
